Source: patent US7459567B2, “Substituted thienyl and furyl acylguanidines and methods of their use as beta-secretase modulators” (Wyeth, priority 2005, dated 2008)

Key:
human BACE1 = human BACE1 (Homo sapiens, UniProt P56817); assay: Fluorescent kinetic assay, BACE1 inhibition (FRET peptide substrate cleavage); format: biochemical; conditions: 10 nM BACE1, 25 μM substrate WABC-6, 50 mM Na-Acetate pH 4.5, room temperature
human BACE1, sequence (P56817 46-501): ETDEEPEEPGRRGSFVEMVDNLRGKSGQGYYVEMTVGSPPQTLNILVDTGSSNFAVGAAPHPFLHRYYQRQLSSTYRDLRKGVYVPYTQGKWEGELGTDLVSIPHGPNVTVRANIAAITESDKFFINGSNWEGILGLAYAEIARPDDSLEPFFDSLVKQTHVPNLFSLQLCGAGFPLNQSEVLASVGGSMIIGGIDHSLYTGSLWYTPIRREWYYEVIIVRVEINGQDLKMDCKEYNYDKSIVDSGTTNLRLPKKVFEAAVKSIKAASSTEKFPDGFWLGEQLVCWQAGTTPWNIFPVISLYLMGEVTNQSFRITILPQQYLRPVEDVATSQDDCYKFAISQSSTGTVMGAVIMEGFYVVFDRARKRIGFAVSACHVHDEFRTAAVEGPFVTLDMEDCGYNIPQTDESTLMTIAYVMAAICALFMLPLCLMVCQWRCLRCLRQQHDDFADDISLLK

CCCOc1ccc(-c2scc(-c3ccccc3Cl)c2CC(=O)N=C(N)N)cc1 [Example 1, N″-{[4-(2-Chlorophenyl)-2-(4-propoxyphenyl)thien-3-yl]acetyl}guanidine]
melting point: 98 to 99 °C

NC(N)=NC(=O)Cc1c(-c2ccccc2)csc1-c1ccccc1 [Example 2, N″-[(2,4-Diphenylthien-3-yl)acetyl]guanidine]
melting point: 204 to 205.5 °C

CCCOc1ccc(-c2scc(-c3ccccc3Cl)c2CC(=O)NC(=N)NCCCO)cc1 [Example 12, 2-[4-(2-Chlorophenyl)-2-(4-propoxyphenyl)thien-3-yl]-N-[[(3-hydroxypropyl)amino](imino)methyl]acetamide]
melting point: 49 to 50 °C

CCC(CC)NC(=O)c1ccc(-c2scc(-c3ccccc3Cl)c2CC(=O)NC(=N)NCCCO)cc1 [Example 13, 4-[4-(2-Chlorophenyl)-3-(2-{[[(3-hydroxypropyl)amino](imino)-methyl]amino}-2-oxoethyl)thien-2-yl]-N-(1-ethylpropyl)benzamide]
melting point: 109 to 110 °C

CCCOc1ccc(-c2csc(-c3ccccc3Cl)c2CC(=O)N=C(N)N)cc1 [Example 5, N″-{[2-(2-Chlorophenyl)-4-(4-propoxyphenyl)thien-3-yl]acetyl}guanidine]
melting point: 111 to 113 °C

CCCOc1ccc(-c2scc(-c3ccccc3)c2CC(=O)NC(=N)N)cc1 [Example 7, N-{[4-Phenyl-2-(4-propoxyphenyl)thien-3-yl]acetyl}guanidine]
melting point: 94 to 95 °C

CCCOc1ccc(-c2csc(-c3ccccc3)c2CC(=O)N=C(N)N)cc1 [Example 8, N″-{[2-Phenyl-4-(4-propoxyphenyl)thien-3-yl]acetyl}guanidine]
melting point: 131 to 132 °C

CC(=O)c1ccc(Oc2ccc(-c3scc(-c4ccccc4Cl)c3CC(=O)N=C(N)N)cc2)cc1 [Example 9, N″-{[2-[4-(4-Acetylphenoxy)phenyl]-4-(2-chlorophenyl)thien-3-yl]acetyl}guanidine]
melting point: 117 to 118 °C

CCCOc1ccc(-c2scc(-c3ccccc3OC(F)(F)F)c2CC(=O)N=C(N)N)cc1 [Example 6, N″-({2-(4-Propoxyphenyl)-4-[2-(trifluoromethoxy)phenyl]thien-3-yl}acetyl)guanidine]
melting point: 90 to 92 °C
IC50 (human BACE1): 1.6 µM

CCC(=O)c1ccc(Oc2ccc(-c3scc(-c4ccccc4Cl)c3CC(=O)N=C(N)N)cc2)cc1 [Example 10, N″-({4-(2-Chlorophenyl)-2-[4-(4-propionylphenoxy)phenyl]thien-3-yl}acetyl)guanidine]
melting point: 123 to 124 °C
IC50 (human BACE1): 1.73 µM

N=C(NCCCO)NC(=O)Cc1c(-c2ccccc2Cl)csc1-c1ccc(C(=O)NCC2CC2)cc1 [Example 16, 4-[4-(2-Chlorophenyl)-3-(2-{[[(3-hydroxypropyl)amino](imino)-methyl]amino}-2-oxoethyl)thien-2-yl]-N-(cyclopropylmethyl)benzamide]
melting point: 100 to 101 °C

CCCCNC(=O)c1ccc(-c2scc(-c3ccccc3Cl)c2CC(=O)NC(=N)NCCCO)cc1 [Example 17, N-Butyl-4-[4-(2-chlorophenyl)-3-(2-{[[(3-hydroxypropyl)amino]-(imino)methyl]amino}-2-oxoethyl)thien-2-yl]benzamide]
melting point: 92 to 95 °C

CCCNC(=O)c1ccc(-c2scc(-c3ccccc3Cl)c2CC(=O)NC(=N)NCCCO)cc1 [Example 15, 4-[4-(2-Chlorophenyl)-3-(2-{[[(3-hydroxypropyl)amino](imino)-methyl]amino}-2-oxoethyl)thien-2-yl]-N-propylbenzamide]
melting point: 116 to 118 °C

N=C(NCCCO)NC(=O)Cc1c(-c2ccccc2Cl)csc1-c1ccc(C(=O)NCC(F)(F)F)cc1 [Example 14, 4-[4-(2-Chlorophenyl)-3-(2-{[[(3-hydroxypropyl)amino](imino)-methyl]amino}-2-oxoethyl)thien-2-yl]-N-(2,2,2-trifluoroethyl)benzamide]
melting point: 103 to 105 °C

CCCOc1ccc(-c2scc(-c3ccccc3Cl)c2CC(=O)NC(=N)NCCCO)cc1C [Example 18, 2-[4-(2-Chlorophenyl)-2-(3-methyl-4-propoxyphenyl)thien-3-yl]-N-[[(3-hydroxypropyl)amino](imino)methyl]acetamide]
melting point: 73 to 76 °C

NC(N)=NC(=O)Cc1c(-c2ccccc2Cl)csc1-c1ccc(Oc2ccccc2)cc1 [Example 4, N″-{[4-(2-Chlorophenyl)-2-(4-phenoxyphenyl)thien-3-yl]acetyl}guanidine]
melting point: 76 to 78 °C
IC50 (human BACE1): 1.6 µM

CCCOc1ccc(-c2scc(-c3ccccc3Cl)c2CC(=O)NC(=N)NCCCO)c(C)c1 [Example 19, 2-[4-(2-Chlorophenyl)-2-(2-methyl-4-propoxyphenyl)thien-3-yl]-N-[[(3-hydroxypropyl)amino](imino)methyl]acetamide]
melting point: 103 to 105.5 °C

NC(N)=NC(=O)Cc1c(-c2ccccc2Cl)csc1-c1ccc(OCCc2cn[nH]c2)cc1 [Example 11, 2-(4-(2-Chlorophenyl)-2-{4-[2-(1H-pyrazol-4-yl)ethoxy]phenyl}-thien-3-yl)-N-(diaminomethylene)acetamide]
melting point: 71 to 72 °C

NC(N)=NC(=O)Cc1c(-c2ccccc2)csc1-c1ccc(Oc2ccccc2)cc1 [Example 3, N″-{[2-(4-Phenoxyphenyl)-4-phenylthien-3-yl]acetyl}guanidine]
melting point: 116 to 118 °C
IC50 (human BACE1): 2.06 µM
